Source: patent publication US20260108483A1, “METHODS AND COMPOSITIONS FOR PREVENTING THE PROGRESSION OF DIABETIC RETINOPATHY AND RELATED CONDITIONS” (Opus Genetics, Inc., priority 2023, published 2026)

Assay: Clinical study safety: alanine aminotransferase in subjects' blood
Assay type: in vivo, human
Conditions: combined placebo + Compound 1 patients; for Mean Concentration of Alanine Aminotransferase in Subjects' Blood: Baseline 22.4
From the text: The study was configured as a placebo-controlled, double-masked, randomized, Phase 2 study in approximately 100 subjects with moderately severe to severe NPDR (diabetic retinopathy severity score [DRSS] Level 47 or 53, see FIG. 1) or mild PDR (DRSS Level 61), evaluating safety and efficacy following administration of Compound 1 twice daily for 24 weeks. The study was configured for a 1:1 randomization (placebo: Compound 1). Randomization was stratified by level of disease severity (NPDR or PDR). Subjects with mild PDR were capped at 20% for each arm. Efficacy evaluations at 12 and/or 24 weeks included DRSS, center-involved diabetic macular edema (DME), moderate PDR or PDR-related adverse events (AEs), best-corrected visual acuity (BCVA), and central subfield thickness (CST). Further experimental procedures and results are described below.
At the Qualification/Baseline (Visit 2, Day 1): • The subject was randomized into the study. • Study medication was dispensed in accordance with the subjects randomized treatment arm. • Blood samples were drawn pre-dose for baseline levels and on Visit 9 (Week 24) for exploratory biomarker processing (i.e., cytokine and Ref-1 levels) to evaluate pharmacodynamic properties. • Subjects were instructed to administer their study medication (Compound 1 or placebo) each day, with 3 tablets every morning and 2 tablets every evening. Study medication was to be taken at approximately the same time each day and may be taken with or without food.
At the Second Treatment Visit (Visit 6, Week 12±2 Days), subjects were to return to the site for the following series of safety and efficacy assessments: drug accountability, concomitant medications, urine pregnancy test (only for women of childbearing potential), HR/BP/vital signs, BCVA (ETDRS), DRSS, CST (SD-OCT), blood draw for PK, blood chemistry, blood hematology, biomicroscopy, ophthalmoscopy, IOP, eGFR, and AEs. Following the completion of the assessments, used medication kits were collected for accountability (by counting the number of unused tablets), and new study medication kits dispensed.
At the Third Treatment Visit (Visit 9, Week 24±2 Days), subjects were to return to the site for the following series of safety and efficacy assessments: drug accountability, concomitant medications, urine pregnancy test (only for women of childbearing potential), physical examination, HR/BP/vital signs, BCVA (ETDRS), DRSS, CST (SD-OCT), blood chemistry, blood hematology, biomicroscopy, ophthalmoscopy, IOP, eGFR, AEs, and blood draw for exploratory biomarkers (ELISA, cytokine panel, comprehensive metabolic panel). Visit 9 (Week 24) was the end of the treatment period. Study medication was returned for accountability (by counting the number of unused tablets), and no further study medication dispensed.
Safety endpoints include: • Incidence and severity of systemic and ocular AEs, • Change from baseline in body system assessments, • Change from baseline in vital sign measurements, • Change from baseline in clinical laboratory assay results (blood chemistry, hematology), • Change from baseline in intraocular pressure (IOP), • Change from baseline in slit-lamp examination parameters, • Change from baseline in dilated funduscopic examination parameters, • Percent of subjects with a decrease of ≥10 letters in BCVA compared to baseline at Week 12 and Week 24, • Percent of subjects progressing to center-involved DME (eligible for rescue treatment at Week 12 and Week 24), • Percent of subjects with a worsening in DRSS of ≥2 steps in the study eye at Week 12 and Week 24, • Percent of subjects developing anterior segment neovascularization at Week 12 and Week 24, • Percent of subjects rescued (intravitreal anti-VEGF injection, laser PRP, focal/grid laser treatment, or surgery [vitrectomy]) at the discretion of the Investigator at Week 12 and Week 24, and • Change from baseline in estimated glomerular filtration rate (eGFR) at Week 12 and Week 24. […]

Structure (SMILES): CCCCCCCCC/C(=C\C1=C(C)C(=O)C(OC)=C(OC)C1=O)C(=O)O [Compound 1, (E)-2-((4,5-dimethoxy-2-methyl-3,6-dioxocyclohexa-1,4-dien-1-yl)methylene)undecanoic acid]
- Mean Concentration of Alanine Aminotransferase in Subjects' Blood (Week 12, 53 subjects): 21.6 IU/L
- Mean Concentration of Alanine Aminotransferase in Subjects' Blood (Week 24, 24 subjects): 20.4 IU/L
- change in mean concentration of alanine aminotransferase relative to Baseline (week 12, 50 subjects): −0.8 IU/L
- reduction in mean concentration of alanine aminotransferase relative to Baseline (week 12, 50 subjects): 3.6%
- change in mean concentration of alanine aminotransferase relative to Baseline (week 24, 22 subjects): −2.1 IU/L
- reduction in mean concentration of alanine aminotransferase relative to Baseline (week 24, 22 subjects): 9.4%
